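Grown in 96-well plates, cells were treated for 48 hours with each compound at five concentrations. Insufficient inhibition: endpoint recorded as highest concentration tested. GI50 marks 50% less growth.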 Calls of active or inactive are those of the source. Rule as the data show it: active = GI50 up to about 1.1 µM and inactive = higher.
Assays:
Test in all cases: DTP human tumour cell line panel, 48 h
[1] = tested on: A498
[2] = tested on: A549
[3] = tested on: COLO 205
[4] = tested on: HOP-92
[5] = tested on: HT-29
[6] = tested on: MOLT-4
[7] = tested on: NCI-H226
[8] = tested on: OVCAR-3
[9] = tested on: OVCAR-4
[10] = tested on: OVCAR-5
[11] = tested on: RPMI-8226
[12] = tested on: SF-295
[13] = tested on: SK-MEL-28
[14] = tested on: SK-MEL-5
[15] = tested on: SN12C
[16] = tested on: SNB-75
[17] = tested on: SW-620
[18] = tested on: UACC-62
[19] = tested on: M14
[20] = tested on: SF-539

| SMILES | GI50 [1] | GI50 [2] | GI50 [3] | GI50 [4] | GI50 [5] | GI50 [6] | GI50 [7] | GI50 [8] | GI50 [9] | GI50 [10] | GI50 [11] | GI50 [12] | GI50 [13] | GI50 [14] | GI50 [15] | GI50 [16] | GI50 [17] | GI50 [18] | GI50 [19] | GI50 [20] |
| --- | --- | --- | --- | --- | --- | --- | --- | --- | --- | --- | --- | --- | --- | --- | --- | --- | --- | --- | --- | --- |
| C#CCn1c(=O)c(C#N)c(O)c2cc3ccccc3nc21 | > 100 µM (inactive) | > 100 µM (inactive) | > 100 µM (inactive) | > 100 µM (inactive) | > 100 µM (inactive) | > 100 µM (inactive) | > 84.1 µM (inactive) | > 100 µM (inactive) | > 10 µM (inactive) | > 84.9 µM (inactive) | > 100 µM (inactive) | > 100 µM (inactive) | > 100 µM (inactive) | > 100 µM (inactive) | > 100 µM (inactive) | > 100 µM (inactive) | > 100 µM (inactive) | > 100 µM (inactive) | – | – |
| OCCOCn1nc(-c2ccccc2)nc1-c1cnccn1 | – | > 100 µM (inactive) | > 100 µM (inactive) | > 100 µM (inactive) | > 100 µM (inactive) | > 100 µM (inactive) | – | > 100 µM (inactive) | > 100 µM (inactive) | > 100 µM (inactive) | > 100 µM (inactive) | > 100 µM (inactive) | > 100 µM (inactive) | > 100 µM (inactive) | > 100 µM (inactive) | 35 µM (inactive) | > 100 µM (inactive) | > 100 µM (inactive) | > 100 µM (inactive) | > 100 µM (inactive) |
| OC12c3ccccc3C1CCCCCC21OCCCO1 (stereo unspecified) | > 100 µM (inactive) | > 100 µM (inactive) | > 100 µM (inactive) | – | > 100 µM (inactive) | > 100 µM (inactive) | > 100 µM (inactive) | > 100 µM (inactive) | > 100 µM (inactive) | > 100 µM (inactive) | > 100 µM (inactive) | > 100 µM (inactive) | > 100 µM (inactive) | > 100 µM (inactive) | > 100 µM (inactive) | > 100 µM (inactive) | > 100 µM (inactive) | > 100 µM (inactive) | > 100 µM (inactive) | > 100 µM (inactive) |
| O=Cc1ccc(CCl)cc1 | 29 µM (inactive) | 39.2 µM (inactive) | 48 µM (inactive) | 27.7 µM (inactive) | 16.8 µM (inactive) | 22.9 µM (inactive) | – | 19.1 µM (inactive) | – | 20.5 µM (inactive) | – | 17.4 µM (inactive) | 17.5 µM (inactive) | 16.6 µM (inactive) | – | > 10 µM (inactive) | 21.5 µM (inactive) | 12.6 µM (inactive) | 14.8 µM (inactive) | 17.1 µM (inactive) |
| Nc1ccc(C2(c3ccc(N)cc3)C3CC4CC(C3)CC2C4)cc1 | 21 µM (inactive) | – | – | 12.4 µM (inactive) | 0.998 µM (active) | 4.95 µM (inactive) | 19.9 µM (inactive) | 10.9 µM (inactive) | 14.3 µM (inactive) | 15.8 µM (inactive) | – | 0.0592 µM (active) | 14.9 µM (inactive) | – | 18.5 µM (inactive) | – | 11.4 µM (inactive) | 16.3 µM (inactive) | 14.9 µM (inactive) | – |
| O=C(NC1C2CC3CC(C2)CC1C3)c1cc(/C=C/c2ccccc2)nc(S)n1 (stereo unspecified) | > 100 µM (inactive) | > 100 µM (inactive) | > 100 µM (inactive) | – | – | > 100 µM (inactive) | – | > 100 µM (inactive) | > 100 µM (inactive) | > 100 µM (inactive) | > 100 µM (inactive) | > 100 µM (inactive) | > 100 µM (inactive) | > 100 µM (inactive) | – | > 100 µM (inactive) | > 100 µM (inactive) | > 100 µM (inactive) | > 100 µM (inactive) | > 100 µM (inactive) |

Source: ChEMBL document CHEMBL1201862, “PubChem BioAssay data set” (2004)
